Measurements taken from US20240043404A1 (AbbVie Inc., priority 2009, published 2024).

System: RS4;11 cells
Test: RS4;11 cell viability assay (CellTiter Glo);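 note: acute lymphoblastic leukemia line RS4,11, EC50 derived from percentage of viable cells after treatment relative to untreated controls, cell killing taken as a measure of Bcl-2 inhibition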
Type: cell-based, human
Details: Homo sapiens, RS4-11, 48 h, 50,000 cells per well, 10% human serum, 48 hours; read-out: RS4; 11 EC50 Values
Description: The acute lymphoblastic leukemia (ALL) cell line RS4;11 was used as the primary human cell line to assess the cellular activity of Bcl-2 selective agents in vitro and their efficacy in vivo.
Cell cytotoxicity EC50 values were assessed using CellTiter Glo (Promega) according to the manufacturer's recommendations. The EC50 values were determined as a percentage of viable cells following treatment compared to the untreated control cells.

| SMILES | EC50 [nM] |
| --- | --- |
| CC1(C)CCC(CN2CCN(c3ccc(C(=O)NS(=O)(=O)c4cnc(OCC5CCOCC5)c(S(C)(=O)=O)c4)c(Oc4cnc5[nH]ccc5c4)c3)CC2)=C(c2ccc(Cl)cc2)C1 [Example 219, 4-(4-{[2-(4-chlorophenyl)-4,4-dimethylcyclohex-1-en-1-yl]methyl}piperazin-1-yl)-N-{[5-(methylsulfonyl)-6-(tetrahydro-2H-pyran-4-ylmethoxy)pyridin-3-yl]sulfonyl}-2-(1H-pyrrolo[2,3-b]pyridin-5-yloxy)benzamide] | > 1000 |
| CC1(C)CCC(CN2CCN(c3ccc(C(=O)NS(=O)(=O)c4ccc(OCC5(F)CCOCC5)c(S(=O)(=O)C(F)(F)F)c4)c(Oc4cnc5[nH]ccc5c4)c3)CC2)=C(c2ccc(Cl)cc2)C1 [Example 220, 4-(4-{[2-(4-chlorophenyl)-4,4-dimethylcyclohex-1-en-1-yl]methyl}piperazin-1-yl)-N-({4-[(4-fluorotetrahydro-2H-pyran-4-yl)methoxy]-3-[(trifluoromethyl)sulfonyl]phenyl}sulfonyl)-2-(1H-pyrrolo[2,3-b]pyridin-5-yloxy)benzamide] | > 1000 |
| CCOC(=O)N1CCN(c2ccc(S(=O)(=O)NC(=O)c3ccc(N4CCN(CC5=C(c6ccc(Cl)cc6)CC(C)(C)CC5)CC4)cc3Oc3cnc4[nH]ccc4c3)cc2[N+](=O)[O-])CC1 [Example 222, ethyl 4-(4-{[4-(4-{[2-(4-chlorophenyl)-4,4-dimethylcyclohex-1-en-1-yl]methyl}piperazin-1-yl)-2-(1H-pyrrolo[2,3-b]pyridin-5-yloxy)benzoyl]sulfamoyl}-2-nitrophenyl)piperazine-1-carboxylate] | > 1000 |
| CC1(C)CCC(CN2CCN(c3ccc(C(=O)NS(=O)(=O)c4ccc(N[C@@H]5CCN(C(CF)CF)C5)c(S(=O)(=O)C(F)(F)F)c4)c(Oc4cnc5[nH]ccc5c4)c3)CC2)=C(c2ccc(Cl)cc2)C1 [Example 225, 4-(4-{[2-(4-chlorophenyl)-4,4-dimethylcyclohex-1-en-1-yl]methyl}piperazin-1-yl)-N-[(4-{[(3R)-1-(1,3-difluoropropan-2-yl)pyrrolidin-3-yl]amino}-3-[(trifluoromethyl)sulfonyl]phenyl)sulfonyl]-2-(1H-pyrrolo[2,3-b]pyridin-5-yloxy)benzamide] | 560 |
| COCCN1CCCC(CNc2ccc(S(=O)(=O)NC(=O)c3ccc(N4CCN(CC5=C(c6ccc(Cl)cc6)CC(C)(C)CC5)CC4)cc3Oc3cnc4[nH]ccc4c3)cc2[N+](=O)[O-])C1 (stereo not drawn) [Example 228, 4-(4-{[2-(4-chlorophenyl)-4,4-dimethylcyclohex-1-en-1-yl]methyl}piperazin-1-yl)-N-{[4-({[1-(2-methoxyethyl)piperidin-3-yl]methyl}amino)-3-nitrophenyl]sulfonyl}-2-(1H-pyrrolo[2,3-b]pyridin-5-yloxy)benzamide] | > 1000 |
| CC1(C)CCC(CN2CCN(c3ccc(C(=O)NS(=O)(=O)c4ccc(NCC5CCCN(CC#N)C5)c([N+](=O)[O-])c4)c(Oc4cnc5[nH]ccc5c4)c3)CC2)=C(c2ccc(Cl)cc2)C1 (stereo not drawn) [Example 229, 4-(4-{[2-(4-chlorophenyl)-4,4-dimethylcyclohex-1-en-1-yl]methyl}piperazin-1-yl)-N-{[4-({[1-(cyanomethyl)piperidin-3-yl]methyl}amino)-3-nitrophenyl]sulfonyl}-2-(1H-pyrrolo[2,3-b]pyridin-5-yloxy)benzamide] | > 1000 |
| CC1(C)CCC(CN2CCN(c3ccc(C(=O)NS(=O)(=O)c4cnc(N[C@@H]5CCN(C(CF)CF)C5)c(Cl)c4)c(Oc4cnc5[nH]ccc5c4)c3)CC2)=C(c2ccc(Cl)cc2)C1 [Example 231, N-[(5-chloro-6-{[(3R)-1-(1,3-difluoropropan-2-yl)pyrrolidin-3-yl]amino}pyridin-3-yl)sulfonyl]-4-(4-{[2-(4-chlorophenyl)-4,4-dimethylcyclohex-1-en-1-yl]methyl}piperazin-1-yl)-2-(1H-pyrrolo[2,3-b]pyridin-5-yloxy)benzamide] | 523 |
| CC1(C)CCC(CN2CCN(c3ccc(C(=O)NS(=O)(=O)c4ccc(NN5CCN(C(=O)OC(C)(C)C)CC5)c([N+](=O)[O-])c4)c(Oc4cnc5[nH]ccc5c4)c3)CC2)=C(c2ccc(Cl)cc2)C1 [Example 232, tert-butyl 4-[(4-{[4-(4-{[2-(4-chlorophenyl)-4,4-dimethylcyclohex-1-en-1-yl]methyl}piperazin-1-yl)-2-(1H-pyrrolo[2,3-b]pyridin-5-yloxy)benzoyl]sulfamoyl}-2-nitrophenyl)amino]piperazine-1-carboxylate] | > 1000 |
| CC1(C)CCC(CN2CCN(c3ccc(C(=O)NS(=O)(=O)c4ccc(NCC5CCOCC5)c(S(F)(F)(F)(F)F)c4)c(Oc4cnc5[nH]ccc5c4)c3)CC2)=C(c2ccc(Cl)cc2)C1 [Example 233, 4-(4-{[2-(4-chlorophenyl)-4,4-dimethylcyclohex-1-en-1-yl]methyl}piperazin-1-yl)-N-({3-(pentafluoro-lambda˜6˜-sulfanyl)-4-[(tetrahydro-2H-pyran-4-ylmethyl)amino]phenyl}sulfonyl)-2-(1H-pyrrolo[2,3-b]pyridin-5-yloxy)benzamide] | > 1000 |

The next molecules have a lower EC50 than those just listed; values first:

| EC50 [nM] | SMILES |
| --- | --- |
| 94.8 | CC1(C)CCC(CN2CCN(c3ccc(C(=O)NS(=O)(=O)c4ccc(OCC5(C)CCOCC5)c([N+](=O)[O-])c4)c(Oc4cnc5[nH]ccc5c4)c3)CC2)=C(c2ccc(Cl)cc2)C1 [Example 221, 4-(4-{[2-(4-chlorophenyl)-4,4-dimethylcyclohex-1-en-1-yl]methyl}piperazin-1-yl)-N-({4-[(4-methyltetrahydro-2H-pyran-4-yl)methoxy]-3-nitrophenyl}sulfonyl)-2-(1H-pyrrolo[2,3-b]pyridin-5-yloxy)benzamide] |
| 182 | CC1(C)CCC(CN2CCN(c3ccc(C(=O)NS(=O)(=O)c4ccc(N5CCC(N6CCOCC6)CC5)c([N+](=O)[O-])c4)c(Oc4cnc5[nH]ccc5c4)c3)CC2)=C(c2ccc(Cl)cc2)C1 [Example 223, 4-(4-{[2-(4-chlorophenyl)-4,4-dimethylcyclohex-1-en-1-yl]methyl}piperazin-1-yl)-N-({4-[4-(morpholin-4-yl)piperidin-1-yl]-3-nitrophenyl}sulfonyl)-2-(1H-pyrrolo[2,3-b]pyridin-5-yloxy)benzamide] |
| 13.9 | CC1(C)CCC(CN2CCN(c3ccc(C(=O)NS(=O)(=O)c4ccc(N[C@@H]5CCN(C6COC6)C5)c([N+](=O)[O-])c4)c(Oc4cnc5[nH]ccc5c4)c3)CC2)=C(c2ccc(Cl)cc2)C1 [Example 224, 4-(4-{[2-(4-chlorophenyl)-4,4-dimethylcyclohex-1-en-1-yl]methyl}piperazin-1-yl)-N-[(3-nitro-4-{[(3R)-1-(oxetan-3-yl)pyrrolidin-3-yl]amino}phenyl)sulfonyl]-2-(1H-pyrrolo[2,3-b]pyridin-5-yloxy)benzamide] |
| 118 | CC(C)N1CCC(Nc2ccc(S(=O)(=O)NC(=O)c3ccc(N4CCN(CC5=C(c6ccc(Cl)cc6)CC(C)(C)CC5)CC4)cc3Oc3cnc4[nH]ccc4c3)cc2[N+](=O)[O-])CC1 [Example 226, 4-(4-{[2-(4-chlorophenyl)-4,4-dimethylcyclohex-1-en-1-yl]methyl}piperazin-1-yl)-N-({4-[(1-isopropylpiperidin-4-yl)amino]-3-nitrophenyl}sulfonyl)-2-(1H-pyrrolo[2,3-b]pyridin-5-yloxy)benzamide] |
| 7.36 | CC1(C)CCC(CN2CCN(c3ccc(C(=O)NS(=O)(=O)c4ccc(NC5CCN(C(C)(C)C)CC5)c([N+](=O)[O-])c4)c(Oc4cnc5[nH]ccc5c4)c3)CC2)=C(c2ccc(Cl)cc2)C1 [Example 227, N-({4-[(1-tert-butylpiperidin-4-yl)amino]-3-nitrophenyl}sulfonyl)-4-(4-{[2-(4-chlorophenyl)-4,4-dimethylcyclohex-1-en-1-yl]methyl}piperazin-1-yl)-2-(1H-pyrrolo[2,3-b]pyridin-5-yloxy)benzamide] |
| 52.8 | CN1CCC(F)(COc2ccc(S(=O)(=O)NC(=O)c3ccc(N4CCN(CC5=C(c6ccc(Cl)cc6)CC(C)(C)CC5)CC4)cc3Oc3cnc4[nH]ccc4c3)cc2S(=O)(=O)C(F)(F)F)CC1 [Example 230, 4-(4-{[2-(4-chlorophenyl)-4,4-dimethylcyclohex-1-en-1-yl]methyl}piperazin-1-yl)-N-({4-[(4-fluoro-1-methylpiperidin-4-yl)methoxy]-3-[(trifluoromethyl)sulfonyl]phenyl}sulfonyl)-2-(1H-pyrrolo[2,3-b]pyridin-5-yloxy)benzamide] |
| 135 | COC1(COc2ccc(S(=O)(=O)NC(=O)c3ccc(N4CCN(CC5=C(c6ccc(Cl)cc6)CC(C)(C)CC5)CC4)cc3Oc3cnc4[nH]ccc4c3)cc2[N+](=O)[O-])CCOCC1 [Example 234, 4-(4-{[2-(4-chlorophenyl)-4,4-dimethylcyclohex-1-en-1-yl]methyl}piperazin-1-yl)-N-({4-[(4-methoxytetrahydro-2H-pyran-4-yl)methoxy]-3-nitrophenyl}sulfonyl)-2-(1H-pyrrolo[2,3-b]pyridin-5-yloxy)benzamide] |
| 32.3 | CC1(C)CCC(CN2CCN(c3ccc(C(=O)NS(=O)(=O)c4ccc(O[C@@H]5CCN(C(CF)CF)C5)c([N+](=O)[O-])c4)c(Oc4cnc5[nH]ccc5c4)c3)CC2)=C(c2ccc(Cl)cc2)C1 [Example 235, 4-(4-{[2-(4-chlorophenyl)-4,4-dimethylcyclohex-1-en-1-yl]methyl}piperazin-1-yl)-N-[(4-{[(3R)-1-(1,3-difluoropropan-2-yl)pyrrolidin-3-yl]oxy}-3-nitrophenyl)sulfonyl]-2-(1H-pyrrolo[2,3-b]pyridin-5-yloxy)benzamide] |
| 42.9 | CC1(C)CCC(CN2CCN(c3ccc(C(=O)NS(=O)(=O)c4ccc(NN5CCN(C6COC6)CC5)c([N+](=O)[O-])c4)c(Oc4cnc5[nH]ccc5c4)c3)CC2)=C(c2ccc(Cl)cc2)C1 [Example 236, 4-(4-{[2-(4-chlorophenyl)-4,4-dimethylcyclohex-1-en-1-yl]methyl}piperazin-1-yl)-N-[(3-nitro-4-{[4-(oxetan-3-yl)piperazin-1-yl]amino}phenyl)sulfonyl]-2-(1H-pyrrolo[2,3-b]pyridin-5-yloxy)benzamide] |
